# From patent US7825127B2, “Method for treating cancer” (Takeda Pharmaceutical Company, Limited, priority 2006, dated 2010)
# Tests used:
# Experiment in all cases: Sulforhodamine B cell growth inhibitory assay
# Format in all cases: cell-based
# BT-474 = BT-474 (FIG. 2A), 5 days
# Procedure: (§1) Sulforhodamine B staining method was used for cell growth inhibitory assay. Each cell was plated on a 96 well plate (Nunc). The next day, compound X was serially diluted and added thereto. The cell lines used and the terms of incubation of the compound are indicated separately. To immobilize the cells, 25% glutaraldehyde solution (Wako, 50 μL) was added to the culture medium (200 μL) and the mixture was left standing at room temperature for 15 min.
# (§2) The plate was then washed once with PBS (Invitrogen), 200 μL of PBS was added, 25 μL of 50% trichloroacetic acid (Wako) was added, and the mixture was left standing at 4° C. for 1 hr or longer. The plate was washed 5 times with tap water, redundant water was removed by slamming the plate against paper towels. A 1% (W/W) acetic acid solution (50 μL) containing 0.4% (w/v) Sulforhodamine B (SRB, Sigma) was added to each well and, 15 min later, the plate was washed 3 times with 1% acetic acid solution. The plate was thoroughly dried, 10 mM Tris solution was added, and the mixture was stirred well in a plate shaker, and the absorbance at 550 nm was measured (Bio-Rad, Benchmark Plus).
# SK-BR-3 = SK-BR-3 (FIG. 2B), 5 days
# Procedure: as §1, §2
# MCF-7 = MCF-7 (FIG. 2C), 3 days
# Procedure: as §1, §2
compound,measurement,setting,value
"CC(C)(O)CC(=O)NCCn1ccc2ncnc(Nc3ccc(Oc4cccc(C(F)(F)F)c4)c(Cl)c3)c21 [compound X, N-{2-[4-({3-chloro-4-[3-(trifluoromethyl)phenoxy]phenyl}amino)-5H-pyrrolo[3,2-d]pyrimidin-5-yl]ethyl}-3-hydroxy-3-methylbutanamide]",sensitivity of cells to growth inhibition,BT-474,high-sensitive
same,sensitivity of cells to growth inhibition,SK-BR-3,high-sensitive
same,sensitivity of cells to growth inhibition,MCF-7,low-sensitive
